Patent publication US20250318529A1, “METHOD FOR MOSQUITO CONTROL” (SYNGENTA CROP PROTECTION AG, priority 2022, published 2025)

Experiments:
Experiment in all cases: CDC bottle bioassay, adult female mosquitoes
An. gambiae Kisumu = type: in vivo, Anopheles gambiae; details: pyrethroid Susceptible
Method: (§1) Examples B1-B3: Bottle Assay Based on the Guideline for Evaluating Insecticide Resistance in Vectors Using the CDC Bottle Bioassay
[…] Once dry, approximately twenty five non-blood fed adult female mosquitoes of the appropriate species and strains (each two or three days old) were aspirated from the stock culture and gently blown into the exposure bottle. The lid of the bottle was replaced, and the bottle placed upright out of direct sun light under standard culture conditions, nominally 28° C. and 60-80% relative humidity.
(§2) A stopwatch was started, and the assessment of the knock-down were made after 60 minutes. A mosquito was said to be knocked down if it was unable to stand, following the CDC definition.
(§3) After one hour the mosquitoes were carefully removed from the bottle with an aspirator and placed in a recovery cup. The mosquitoes were supplied with a 10% sucrose solution on a cotton wool bung, and stored under culture conditions. Assessments of the mortality were made after 24 and 48 hours.
(§4) Each treatment was replicated a minimum of three times, with the mean knockdown or mortality recorded. In each study, a set of bottles was infested with a known insecticide susceptible strain of mosquitoes from the same genera as the resistant strains.

Anopheles stephensi = type: in vivo; details: pyrethroid Susceptible
Method: as §1
(§5) 1 ml of acetone containing a test compound at a defined concentration, and 1500 ppm Mero (Bayer Crop Science) was added to a 250 ml glass bottle, the bottle was placed on a rolling table to coat the inner surfaces as the solvent evaporated. Once dry, approximately twenty five non-blood fed adult female mosquitoes of the appropriate species and strains (each two or three days old) were aspirated from the stock culture and gently blown into the exposure bottle. The lid of the bottle was replaced, and the bottle placed upright out of direct sun light under standard culture conditions, nominally 28° C. and 60-80% relative humidity.
as §2, §3, §4

An. gambiae Tiassale = type: in vivo, Anopheles gambiae; details: pyrethroid Resistant
Method: as §1, §5, §2, §3, §4

An. gambiae KisKDR = type: in vivo, Anopheles gambiae; details: pyrethroid Resistant
Method: as §1, §5, §2, §3, §4

An. gambiae M'Bé = type: in vivo, Anopheles gambiae; details: pyrethroid Resistant
Method: as §1, §5, §2, §3, §4

[1] = Table B1, 25 μg/bottle + 1.5 mg Mero
[2] = Table B1, 50 μg/bottle + 1.5 mg Mero
[3] = Table B1, 250 μg/bottle + 1.5 mg Mero
[4] = Table B2, 50 μg/bottle + 1.5 mg Mero
[5] = Table B2, 250 μg/bottle + 1.5 mg Mero
[6] = Table B3, 25 μg/bottle + 1.5 mg Mero
[7] = Table B3, 50 μg/bottle + 1.5 mg Mero
[8] = Table B3, 250 μg/bottle + 1.5 mg Mero

With `CCN1OCC(NC(=O)c2ccc(C3=NOC(c4cc(Cl)c(F)c(Cl)c4)(C(F)(F)F)C3)cc2C)C1=O` (stereo not shown) [Isocycloseram] the “Mean % mortality 60 minutes” value (An. gambiae Kisumu; [1]) was 56.8%, the “Mean % mortality 24 hours” value (An. gambiae Kisumu; [1]) was 89.6% and the “Mean % mortality 60 minutes” value (An. gambiae Kisumu; [2]) was 88.8%. The “Mean % mortality 24 hours” value (An. gambiae Kisumu; [2]) was 100%, the “Mean % mortality 60 minutes” value (An. gambiae Kisumu; [3]) was 99.2% and the “Mean % mortality 24 hours” value (An. gambiae Kisumu; [3]) was 100%. The “Mean % mortality 60 minutes” value (An. gambiae Kisumu; [4]) was 80.77%, the “Mean % mortality 24 hours” value (An. gambiae Kisumu; [4]) was 100% and the “Mean % mortality 60 minutes” value (An. gambiae Kisumu; [5]) was 80.77%. For the same compound, the “Mean % mortality 24 hours” value (An. gambiae Kisumu; [5]) was 100%, the “Mean % mortality 60 minutes” value (An. gambiae Kisumu; [6]) was 98.8% and the “Mean % mortality 24 hours” value (An. gambiae Kisumu; [6]) was 100%. The “Mean % mortality 60 minutes” value (An. gambiae Kisumu; [7]) was 96.4%, the “Mean % mortality 24 hours” value (An. gambiae Kisumu; [7]) was 100% and the “Mean % mortality 60 minutes” value (An. gambiae Kisumu; [8]) was 99.2%. The “Mean % mortality 24 hours” value (An. gambiae Kisumu; [8]) was 100%, the “Mean % mortality 60 minutes” value (Anopheles stephensi; [1]) was 12% and the “Mean % mortality 24 hours” value (Anopheles stephensi; [1]) was 70.4%. The “Mean % mortality 60 minutes” value (Anopheles stephensi; [2]) was 60.8%, the “Mean % mortality 24 hours” value (Anopheles stephensi; [2]) was 98.4% and the “Mean % mortality 60 minutes” value (Anopheles stephensi; [3]) was 79.2%. For the same compound, the “Mean % mortality 24 hours” value (Anopheles stephensi; [3]) was 100%, the “Mean % mortality 60 minutes” value (An. gambiae Tiassale; [1]) was 38.4% and the “Mean % mortality 24 hours” value (An. gambiae Tiassale; [1]) was 89.6%. For the same compound, the “Mean % mortality 60 minutes” value (An. gambiae Tiassale; [2]) was 84%, the “Mean % mortality 24 hours” value (An. gambiae Tiassale; [2]) was 100% and the “Mean % mortality 60 minutes” value (An. gambiae Tiassale; [3]) was 98.4%. For the same compound, the “Mean % mortality 24 hours” value (An. gambiae Tiassale; [3]) was 100%, the “Mean % mortality 60 minutes” value (An. gambiae Tiassale; [6]) was 96.9% and the “Mean % mortality 24 hours” value (An. gambiae Tiassale; [6]) was 100%. The “Mean % mortality 60 minutes” value (An. gambiae Tiassale; [7]) was 99.2%, the “Mean % mortality 24 hours” value (An. gambiae Tiassale; [7]) was 100% and the “Mean % mortality 60 minutes” value (An. gambiae Tiassale; [8]) was 99.1%. For the same compound, the “Mean % mortality 24 hours” value (An. gambiae Tiassale; [8]) was 100%, the “Mean % mortality 60 minutes” value (An. gambiae KisKDR; [4]) was 86.7% and the “Mean % mortality 24 hours” value (An. gambiae KisKDR; [4]) was 100%. The “Mean % mortality 60 minutes” value (An. gambiae KisKDR; [5]) was 100%, the “Mean % mortality 24 hours” value (An. gambiae KisKDR; [5]) was 100% and the “Mean % mortality 60 minutes” value (An. gambiae M'Bé; [4]) was 37.8%. For the same compound, the “Mean % mortality 24 hours” value (An. gambiae M'Bé; [4]) was 70.3%, the “Mean % mortality 60 minutes” value (An. gambiae M'Bé; [5]) was 89.3% and the “Mean % mortality 24 hours” value (An. gambiae M'Bé; [5]) was 100%.
With `CC1(C)C(C=C(Cl)Cl)C1C(=O)OCc1cccc(Oc2ccccc2)c1` (stereo not shown) [Permethrin, reference compound] the “Mean % mortality 60 minutes” value (An. gambiae Kisumu; Table B1, 20 μg/bottle) was 100%, the “Mean % mortality 24 hours” value (An. gambiae Kisumu; Table B1, 20 μg/bottle) was 100% and the “Mean % mortality 60 minutes” value (An. gambiae Kisumu; Table B2, 20 μg/bottle) was 100%. For the same compound, the “Mean % mortality 24 hours” value (An. gambiae Kisumu; Table B2, 20 μg/bottle) was 100%, the “Mean % mortality 60 minutes” value (An. gambiae Kisumu; Table B3, 20 μg/bottle) was 100% and the “Mean % mortality 24 hours” value (An. gambiae Kisumu; Table B3, 20 μg/bottle) was 100%. The “Mean % mortality 60 minutes” value (Anopheles stephensi; Table B1, 20 μg/bottle) was 100%, the “Mean % mortality 24 hours” value (Anopheles stephensi; Table B1, 20 μg/bottle) was 100% and the “Mean % mortality 60 minutes” value (An. gambiae Tiassale; Table B1, 20 μg/bottle) was 45.6%. The “Mean % mortality 24 hours” value (An. gambiae Tiassale; Table B1, 20 μg/bottle) was 80%, the “Mean % mortality 60 minutes” value (An. gambiae Tiassale; Table B3, 20 μg/bottle) was 99.1% and the “Mean % mortality 24 hours” value (An. gambiae Tiassale; Table B3, 20 μg/bottle) was 91.7%. The “Mean % mortality 60 minutes” value (An. gambiae KisKDR; Table B2, 20 μg/bottle) was 100%, the “Mean % mortality 24 hours” value (An. gambiae KisKDR; Table B2, 20 μg/bottle) was 82.1% and the “Mean % mortality 60 minutes” value (An. gambiae M'Bé; Table B2, 20 μg/bottle) was 12.5%. For the same compound, the “Mean % mortality 24 hours” value (An. gambiae M'Bé; Table B2, 20 μg/bottle) was 13.9%.
